Reference: patent US11371077B2, “High throughput cell-based screening for aptamers” (MeiraGTx UK II Limited, priority 2016, dated 2022)

How the values were obtained:
Type in all cases: cell-based
xpt-G17 riboswitch = test: Luciferase reporter assay, xpt-G17 riboswitch, transfected HEK 293 cells; details: for response of guanine riboswitch xpt-G17 to compound (FIG. 1e): Prestwick library at 100 μM
Source text: (§1) A truncated human beta-globin intron sequence was synthesized and inserted in the coding sequence of a firefly luciferase gene. A mutant human DHFR exon 2 was synthesized and inserted in the middle of this truncated beta-globin intron sequence using Golden gate cloning strategy. Aptamers including xpt-G/A^1, ydhl-G/A^2, yxj^3, add^4, gdg6-G/A^5 (citations for the aptamers are incorporated herein by reference) were synthesized as oligonucleotides (“oligos”) with 4 nucleotide overhang at the 5′ end that are complementary to two different BsaI sites individually (IDT), annealed and ligated to BsaI-digested mDHFR-Luci-acceptor vector.
(§2) 3.5×10^4 HEK 293 cells were plated in a 96-well flat bottom plate the day before transfection. Plasmid DNA (500 ng) was added to a tube or a 96-well U-bottom plate. Separately, TransIT-293 reagent (Mirus; 1.4 μL) was added to 50 μL Opti-mem I media (Life Technologies), and allowed to sit for 5 minutes at room temperature (RT). Then, 50 μL of this diluted transfection reagent was added to the DNA, mixed, and incubated at RT for 20 min. Finally, 7 μL of this solution was added to a well of cells in the 96-well plate.
(§3) 24 hours after media change, plates were removed from the incubator, and equilibrated to RT for several minutes on a lab bench, then aspirated. Glo-lysis buffer (Promega, 100 μL, RT) was added, and the plates maintained at RT for at least 5 minutes. Then, the well contents were mixed by 50 μL trituration, and 20 μL of each sample was mixed with 20 μL of bright-glo reagent (Promega) that had been diluted to 10% in glo-lysis buffer. 96 wells were spaced on an opaque white 384-well plate. Following a 5 min incubation at RT, luminescence was measured using a Tecan machine with 500 mSec read time. The luciferase activity was expressed as mean relative light unit (RLU)±S.D., and fold induction was calculated as the luciferase activity obtained with guanine treatment divided by luciferase activity obtained without guanine treatment.

gdg6-A8 riboswitch = test: Luciferase reporter assay, gdg6-A8 riboswitch, transfected HEK 293 cells; details: Homo sapiens, HEK293; gdg6-A8 riboswitch; Prestwick library compounds at 100 μM; HEK 293
Source text: (§4) Riboswitches were constructed as described in PCT/US2016/016234 (in particular Examples 3 to 6), incorporated herein by reference. A truncated human beta-globin intron sequence was synthesized and inserted in the coding sequence of a firefly luciferase gene. A mutant human DHFR exon 2 was synthesized and inserted in the middle of this truncated beta-globin intron sequence using Golden gate cloning strategy. Aptamers including xpt-G/A^1, ydhl-G/A^2, yxj^3, add^4, gdg6-G/A^5 (citations for the aptamers are incorporated herein by reference) were synthesized as oligonucleotides (“oligos”) with 4 nucleotide overhang at the 5′ end that are complementary to two different BsaI sites individually (IDT), annealed and ligated to BsaI-digested mDHFR-Luci-acceptor vector.
as §2, §3

yxj-A6 riboswitch = test: cells; details: Homo sapiens, HEK293, read-out: Fold Induction of luciferase activity
Source text: as §1, §2
as §3, with “The luciferase activity was expressed as mean relative light unit (RLU)±S.D., and fold induction was calculated as the luciferase activity obtained with guanine treatment divided by luciferase activity obtained without guanine treatment.” left out

add-A6 riboswitch = test: cells; details: Homo sapiens, HEK293, read-out: Fold Induction of luciferase activity
Source text: as §4, §2, §3

xpt-A8 riboswitch = test: cells; details: Homo sapiens, HEK293, read-out: Fold Induction of luciferase activity
Source text: as §4, §2, §3

ydhl-A6 riboswitch = test: Luciferase reporter assay, ydhl-A6 riboswitch, transfected HEK 293 cells; details: Homo sapiens, HEK293, read-out: Fold Induction of luciferase activity, ydhl-A6 riboswitch; Prestwick library compounds at 100 μM; HEK 293
Source text: as §1
as §2, with “Separately, TransIT-293 reagent (Mirus; 1.4 μL) was added to 50 μL Opti-mem I media (Life Technologies), and allowed to sit for 5 minutes at room temperature (RT).” left out
as §3

gdg6-G8 riboswitch = test: Luciferase reporter assay, gdg6-G8 riboswitch, transfected HEK 293 cells; details: Homo sapiens, HEK293; gdg6-G8 riboswitch; Prestwick library compounds at 100 μM; HEK 293
Source text: as §4, §2, §3

add-G6 riboswitch = test: cells; details: Homo sapiens, HEK293, read-out: Fold Induction of luciferase activity
Source text: as §1
as §2, with “Separately, TransIT-293 reagent (Mirus; 1.4 μL) was added to 50 μL Opti-mem I media (Life Technologies), and allowed to sit for 5 minutes at room temperature (RT).” left out
as §3, with “The luciferase activity was expressed as mean relative light unit (RLU)±S.D., and fold induction was calculated as the luciferase activity obtained with guanine treatment divided by luciferase activity obtained without guanine treatment.” left out

ydhl-G8 riboswitch = test: Luciferase reporter assay, ydhl-G8 riboswitch, transfected HEK 293 cells; details: Homo sapiens, HEK293, read-out: Fold Induction of luciferase activity
Source text: as §1
as §2, with “Separately, TransIT-293 reagent (Mirus; 1.4 μL) was added to 50 μL Opti-mem I media (Life Technologies), and allowed to sit for 5 minutes at room temperature (RT).” left out
as §3

[1] = tested on: riboswitches with guanine aptamers; test: Dose responses of constructs with different aptamer based riboswitches (FIG. 1b); details: mammalian cells
Source text: as §1
3.5×10^4 HEK 293 cells were plated in a 96-well flat bottom plate the day before transfection. Plasmid DNA (500 ng) was added to a tube or a 96-well U-bottom plate. […] Then, 50 μL of this diluted transfection reagent was added to the DNA, mixed, and incubated at RT for 20 min. […]
24 hours after media change, plates were removed from the incubator, and equilibrated to RT for several minutes on a lab bench, then aspirated. […] Following a 5 min incubation at RT, luminescence was measured using a Tecan machine with 500 mSec read time. The luciferase activity was expressed as mean relative light unit (RLU)±S.D., and fold induction was calculated as the luciferase activity obtained with guanine treatment divided by luciferase activity obtained without guanine treatment.

| Compound | fold induction at 100 µM (xpt-G17 riboswitch; Homo sapiens, HEK293, xpt-G17 riboswitch, Prestwick library compounds at 100 μM, HEK 293, preliminary screen) | response of guanine riboswitch xpt-G17 to compound (FIG. 1e) (xpt-G17 riboswitch; preliminary screen) | fold induction at 100 µM (gdg6-A8 riboswitch) | fold induction at 100 µM (yxj-A6 riboswitch) | fold induction at 100 µM (add-A6 riboswitch) | fold induction at 100 µM (xpt-A8 riboswitch) | fold induction at 100 µM (ydhl-A6 riboswitch) | fold induction at 100 µM (gdg6-G8 riboswitch) | fold induction at 100 µM (add-G6 riboswitch) | fold induction at 100 µM (ydhl-G8 riboswitch) | induction fold of luciferase reporter in response to guanine (xpt-G17 riboswitch; xpt-G17, high concentration of guanine) | response of riboswitches with guanine aptamers (reporter gene expression, FIG. 1b) [1] |
| --- | --- | --- | --- | --- | --- | --- | --- | --- | --- | --- | --- | --- |
| Nc1nc2nn[nH]c2c(=O)[nH]1 [8-Azaguanine] | 131 | responded | 306 | 55.6 | 22.1 | 95.1 | 3.7 | 42.3 | 47.9 | 35.6 |  |  |
| Nc1nc2nc[nH]c2c(=O)[nH]1 [guanine] |  | responded |  |  |  |  |  |  |  |  | 2000 fold | responds |
| Nc1nc2c(ncn2[C@@H]2O[C@H](CO)[C@@H](O)[C@H]2O)c(=O)[nH]1 [guanosine] |  |  |  |  |  |  |  |  |  |  |  | responds |
